For experiment [1], the target named is T1, human recombinant kinase full-length AKT1 E17K (Homo sapiens, UniProt P31749, E17K).
T1 construct: Purified human recombinant kinase full-length AKT1 E17K was expressed in insect cells; made in house; host or cells: insect cells
In words: AKT1 E17K kinase assay (TR-FRET, Lance). The experiment is classed as biochemical. As to conditions: 0.6 nM AKT1 E17K, 50 nM Ulight-CREBtide, either 50 μM ATP or 2 mM ATP (not specified which), 60 min at RT. Summed up:
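Full-length human AKT1 E17K (insect cell-expressed, PDPK1-activated; 0.6 nM) with 50 nM ULight-CREBtide in HEPES pH 7.5 with MgCl2 and DTT. ATP at 50 μM or 2 mM, 1% DMSO, 10-point dose response, 60 min at RT.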

Experiment [2] has as its target T2, human recombinant kinase full-length wildtype AKT1 (Homo sapiens, UniProt P31749).
T2 construct: Purified human recombinant kinase full-length wildtype AKT1 was expressed in insect cells; made in house; host or cells: insect cells
In words: AKT1 kinase assay (wildtype, TR-FRET, Lance). The class given is biochemical. As to conditions: 0.6 nM wildtype AKT1, 50 nM Ulight-CREBtide, either 50 μM ATP or 2 mM ATP (not specified which), 60 min at RT. Summed up:
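Insect-cell-expressed AKT1, activated in vitro by PDPK1, was used at 0.6 nM with 50 nM Ulight-CREBtide and 50 μM or 2 mM ATP in 50 mM HEPES pH 7.5, 1% DMSO, over a 10-point dose response.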

A value given as a limit tells only on which side of the number the result lay.

One may read the IC50 as the concentration that inhibits the measured activity by half.

T1 sequence (P31749 whole entry E17K): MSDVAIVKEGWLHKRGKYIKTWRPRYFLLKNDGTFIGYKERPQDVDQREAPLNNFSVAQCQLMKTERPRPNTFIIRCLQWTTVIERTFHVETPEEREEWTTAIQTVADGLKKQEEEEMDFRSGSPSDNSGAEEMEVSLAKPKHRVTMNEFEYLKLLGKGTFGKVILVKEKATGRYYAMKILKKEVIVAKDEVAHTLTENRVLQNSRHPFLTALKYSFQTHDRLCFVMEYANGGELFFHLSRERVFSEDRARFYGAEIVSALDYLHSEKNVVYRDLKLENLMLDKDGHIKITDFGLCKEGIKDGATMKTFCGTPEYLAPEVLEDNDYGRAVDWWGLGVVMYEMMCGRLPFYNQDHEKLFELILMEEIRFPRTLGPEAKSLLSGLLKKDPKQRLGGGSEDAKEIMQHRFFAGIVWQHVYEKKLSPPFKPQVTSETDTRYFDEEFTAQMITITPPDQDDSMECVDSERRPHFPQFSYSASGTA
T2 sequence (P31749 whole entry): as the sequence (P31749 whole entry E17K) above, with K17E counted along it

As for `COC(=O)CCc1ccc(C(=O)NCc2ccc(-n3c(-c4cccnc4N)nc4cc(-c5cccnc5)cnc43)cc2)cc1` [Compound 91, methyl 3-(4-((4-(2-(2-aminopyridin-3-yl)-6-(pyridin-3-yl)-3H-imidazo[4,5-b]pyridin-3-yl)benzyl)carbamoyl)phenyl) propanoate], the half-inhibitory concentration (IC50) is more than 500 nM in experiment [1] and less than 500 nM in experiment [2].

With `Nc1ncccc1-c1nc2cc(-c3cccnc3)cnc2n1-c1ccc(CNC(=O)c2ccc(CCC(=O)O)cc2)cc1` [Compound 92, 3-(4-((4-(2-(2-aminopyridin-3-yl)-6-(pyridin-3-yl)-3H-imidazo[4,5-b]pyridin-3-yl)benzyl)carbamoyl)phenyl) propanoic acid], the IC50 was 200 to 500 nM in experiment [1] and less than 500 nM in experiment [2].

In the case of `COC(=O)CCc1cccc(C(=O)NCc2ccc(-n3c(-c4cccnc4N)nc4cc(-c5cccnc5)cnc43)cc2)c1` [Compound 93, methyl 3-(3-((4-(2-(2-aminopyridin-3-yl)-6-(pyridin-3-yl)-3H-imidazo[4,5-b]pyridin-3-yl)benzyl)carbamoyl)phenyl) propanoate], the IC50 is more than 500 nM in experiment [1] and less than 500 nM in experiment [2].

Take `Nc1ncccc1-c1nc2cc(-c3cccnc3)cnc2n1-c1ccc(CNC(=O)c2cccc(CCC(=O)O)c2)cc1` [Compound 94, 3-(3-((4-(2-(2-aminopyridin-3-yl)-6-(pyridin-3-yl)-3H-imidazo[4,5-b]pyridin-3-yl)benzyl)carbamoyl)phenyl) propanoic acid]: the half-maximal inhibitory concentration (IC50) in experiment [1] is more than 500 nM; in experiment [2] it was less than 500 nM.

Turning to `Nc1ncccc1-c1nc2ccc(-c3cccnc3)nc2n1-c1ccc(CNC(=O)c2ccc(CC(=O)O)cc2)cc1` [Compound 95, 2-(4-((4-(2-(2-aminopyridin-3-yl)-5-(pyridin-3-yl)-3H-imidazo[4,5-b]pyridin-3-yl)benzyl)carbamoyl)phenyl) acetic acid], the half-maximal inhibitory concentration (IC50) is 200 to 500 nM in experiment [1] and less than 500 nM in experiment [2].

For `Nc1ncccc1-c1nc2ccc(-c3cccnc3)nc2n1-c1ccc(CNC(=O)c2cccc(CC(=O)O)c2)cc1` [Compound 96, 2-(3-((4-(2-(2-aminopyridin-3-yl)-5-(pyridin-3-yl)-3H-imidazo[4,5-b]pyridin-3-yl)benzyl)carbamoyl)phenyl) acetic acid], the figures for the IC50 in experiment [1] and in experiment [2] were 200 to 500 nM and less than 500 nM, respectively.

Turning to `NC(=O)c1cnc2c(c1)nc(-c1cccnc1N)n2-c1ccc(CNC(=O)c2cccc(CC(=O)O)c2)cc1` [Compound 97, 2-[3-[[4-[2-(2-amino-3-pyridyl)-6-carbamoyl-imidazo[4,5-b]pyridin-3-yl]phenyl]methylcarbamoyl]phenyl]acetic acid], the IC50 in experiment [1] and in experiment [2] was more than 500 nM in each case.

As for `Nc1ncccc1-c1nc2cc(C(F)(F)F)cnc2n1-c1ccc(CNC(=O)c2ccc(C(=O)O)cc2)cc1` [Compound 98, 4-((4-(2-(2-aminopyridin-3-yl)-6-(trifluoromethyl)-3H-imidazo[4,5-b]pyridin-3-yl)benzyl)carbamoyl)benzoic acid], the values for the IC50 in experiment [1] and in experiment [2] were more than 500 nM and less than 500 nM, respectively.

In the case of `Nc1ncccc1-c1nc2ccc(C(F)(F)F)nc2n1-c1ccc(CNC(=O)c2ccc(C(=O)O)cc2)cc1` [Compound 99, 4-((4-(2-(2-aminopyridin-3-yl)-5-(trifluoromethyl)-3H-imidazo[4,5-b]pyridin-3-yl)benzyl)carbamoyl)benzoic acid], the results for the IC50 in experiment [1] and in experiment [2] were more than 500 nM and less than 500 nM, respectively.

As to `COC(=O)Cc1cccc(C(=O)NCc2ccc(-n3c(-c4cccnc4N)nc4cccnc43)cc2)c1` [Compound 100, methyl 2-(3-((4-(2-(2-aminopyridin-3-yl)-3H-imidazo[4,5-b]pyridin-3-yl)benzyl)carbamoyl)phenyl)acetate], the IC50 in experiment [1] and in experiment [2] was more than 500 nM throughout.

On to `Nc1ncccc1-c1nc2cccnc2n1-c1ccc(CNC(=O)c2cccc(CC(=O)O)c2)cc1` [Compound 101, 2-(3-((4-(2-(2-aminopyridin-3-yl)-3H-imidazo[4,5-b]pyridin-3-yl)benzyl)carbamoyl)phenyl) acetic acid], for which the IC50 in experiment [1] and in experiment [2] was more than 500 nM each time.

For the molecule `COc1ccc2nc(-c3cccnc3N)n(-c3ccc(CNC(=O)c4ccc(C(=O)O)cc4C)cc3)c2c1` [Compound 102, 4-((4-(2-(2-aminopyridin-3-yl)-6-methoxy-1H-benzo[d]imidazol-1-yl)benzyl)carbamoyl)-3-methylbenzoic acid], the IC50 in experiment [1] is more than 500 nM; in experiment [2], less than 500 nM.

As for `COc1ccc2nc(-c3cccnc3N)n(-c3ccc(CNC(=O)c4cccc(C(=O)O)c4F)cc3)c2c1` [Compound 103, 3-((4-(2-(2-aminopyridin-3-yl)-6-methoxy-1H-benzo[d]imidazol-1-yl)benzyl)carbamoyl)-2-fluorobenzoic acid], the half-maximal inhibitory concentration (IC50) in experiment [1] and in experiment [2] was more than 500 nM throughout.

As to `COc1ccc2nc(-c3cccnc3N)n(-c3ccc(CNC(=O)c4cccc(CC(=O)O)c4)cc3)c2c1` [Compound 104, 2-(3-((4-(2-(2-aminopyridin-3-yl)-6-methoxy-1H-benzo[d]imidazol-1-yl)benzyl)carbamoyl)phenyl) acetic acid], the half-maximal inhibitory concentration (IC50) in experiment [1] and in experiment [2] was more than 500 nM throughout.

As to `Cc1cc(C(=O)O)ccc1C(=O)NCc1ccc(-n2c(-c3cccnc3N)nc3ccc(C(F)(F)F)cc32)cc1` [Compound 105, 4-((4-(2-(2-aminopyridin-3-yl)-6-(trifluoromethyl)-1H-benzo[d]imidazol-1-yl)benzyl)carbamoyl)-3-methylbenzoic acid], the IC50 was more than 500 nM in experiment [1] and less than 500 nM in experiment [2].

As for `Nc1ncccc1-c1nc2ccc(C(F)(F)F)cc2n1-c1ccc(CNC(=O)c2cccc(C(=O)O)c2F)cc1` [Compound 106, 3-((4-(2-(2-aminopyridin-3-yl)-6-(trifluoromethyl)-1H-benzo[d]imidazol-1-yl)benzyl)carbamoyl)-2-fluorobenzoic acid], the IC50 in experiment [1] and in experiment [2] was more than 500 nM each time.

With `Nc1ncccc1-c1nc2ccc(C(F)(F)F)cc2n1-c1ccc(CNC(=O)c2cccc(CC(=O)O)c2)cc1` [Compound 107, 2-(3-((4-(2-(2-aminopyridin-3-yl)-6-(trifluoromethyl)-1H-benzo[d]imidazol-1-yl)benzyl)carbamoyl)phenyl) acetic acid], the IC50 in experiment [1] and in experiment [2] was more than 500 nM in each case.

As for `Nc1ncccc1-c1nc2ccccc2n1-c1ccc(CNC(=O)c2cccc(CC(=O)O)c2)cc1` [Compound 108, 2-(3-((4-(2-(2-aminopyridin-3-yl)-1H-benzo[d]imidazol-1-yl)benzyl)carbamoyl)phenyl) acetic acid], the 50% inhibitory concentration (IC50) in experiment [1] and in experiment [2] was more than 500 nM each time.

As to `Nc1ncccc1-c1nc2ccc(-c3ccc(F)cc3)nc2n1-c1ccc(NC(=O)c2ccc(C(=O)O)cc2)nc1` [Compound 109, 4-((5-(2-(2-aminopyridin-3-yl)-5-(4-fluorophenyl)-3H-imidazo[4,5-b]pyridin-3-yl)pyridin-2-yl)carbamoyl)benzoic acid], the values for the IC50 in experiment [1] and in experiment [2] were 50 to 200 nM and less than 500 nM, respectively.

Take `Nc1ncccc1-c1nc2ccc(-c3ccccc3)nc2n1-c1ccc(NC(=O)c2ccc(C(=O)O)c(F)c2)nc1` [Compound 117]: the half-maximal inhibitory concentration (IC50) is less than 50 nM in experiment [1] and less than 500 nM in experiment [2].

As for `Cc1cc(C(=O)Nc2ccc(-n3c(-c4cccnc4N)nc4ccc(-c5ccccc5)nc43)cn2)ccc1C(=O)O` [Compound 118, 4-((5-(2-(2-aminopyridin-3-yl)-5-phenyl-3H-imidazo[4,5-b]pyridin-3-yl)pyridin-2-yl)carbamoyl)-2-methylbenzoic acid], the concentration for half-maximal inhibition (IC50) in experiment [1] is less than 50 nM; in experiment [2] it was less than 500 nM.

As to `Nc1ncccc1-c1nc2ccc(-c3ccccc3)nc2n1-c1ccc(C2CCN(Cc3ccc(C(=O)O)cc3)CC2)cc1` [Compound 139, 4-((4-(4-(2-(2-aminopyridin-3-yl)-5-phenyl-3H-imidazo[4,5-b]pyridin-3-yl)phenyl)piperidin-1-yl)methyl)benzoic acid], the concentration for half-maximal inhibition (IC50) in experiment [1] is more than 500 nM; in experiment [2] it was less than 500 nM.

Turning to `Cc1cc(C(=O)Nc2ccc(-n3c(-c4cccnc4N)nc4ccc(-c5ccccc5)nc43)cn2)c(F)cc1C(=O)O` [Compound 145], the results for the IC50 in experiment [1] and in experiment [2] were 50 to 200 nM and less than 500 nM, respectively.

Take `Cc1nc(NC(=O)c2cc(F)c(C(=O)O)cc2F)ccc1-n1c(-c2cccnc2N)nc2ccc(-c3ccccc3)nc21` [Compound 147]: the 50% inhibitory concentration (IC50) in experiment [1] was 50 to 200 nM; in experiment [2] it was less than 500 nM.

As for `Cc1nc(NC(=O)c2ccc(C(=O)O)cc2F)ccc1-n1c(-c2cccnc2N)nc2ccc(-c3ccccc3)nc21` [Compound 148], the results for the half-inhibitory concentration (IC50) in experiment [1] and in experiment [2] were 50 to 200 nM and less than 500 nM, respectively.

Take `Cc1cc(C(=O)O)c(F)cc1C(=O)Nc1ccc(-n2c(-c3cccnc3N)nc3ccc(-c4ccccc4)nc32)c(C)n1` [Compound 149]: the IC50 in experiment [1] is 50 to 200 nM; in experiment [2] it was less than 500 nM.

Turning to `Nc1ncccc1-c1nc2ccc(-c3ccccc3)nc2n1-c1ccc(NC(=O)c2cc(F)c(C(=O)O)c(F)c2)nc1` [Compound 150], the IC50 was less than 50 nM in experiment [1] and less than 500 nM in experiment [2].

Turning to `Nc1ncccc1-c1nc2ccc(-c3ccccc3)nc2n1-c1ccc(NC(=O)c2ccc(C(=O)O)nc2)nc1` [Compound 151], the figures for the IC50 in experiment [1] and in experiment [2] were less than 50 nM and less than 500 nM, respectively.

Source of the values: US20260200919A1, “SUBSTITUTED AMINOPYRIDINE COMPOUNDS AND METHODS OF TREATING DISEASE USING SAME” (Atavistik Bio, Inc., priority 2023, published 2026).
